Key:
[1] = target: T1, p38 MAPKα isoform (MAPK14) (Homo sapiens, UniProt Q16539); experiment: p38 MAPKα enzyme inhibition (Z-LYTE FRET); type: biochemical
T1 construct: purchased Life Technologies
Experimental: The enzyme inhibitory activities of the compound disclosed herein were determined by FRET using synthetic peptides labelled with both donor and acceptor fluorophores (Z-LYTE, Life Technologies, Paisley, UK).
The enzyme (40 ng/mL, 2.5 μL) was incubated with the test compound (2.5 μL of either 40 μg/mL, 12 μg/mL, 4 μg/mL, 1.2 μg/mL, 0.4 μg/mL, 0.12 μg/mL, 0.04 μg/mL, 0.012 μg/mL, 0.004 μg/mL or 0.0012 μg/mL) for 2 h at RT. […] Development reagent (protease, 5 μL) was added for 1 h prior to detection in a fluorescence microplate reader (EnVision, Perkin Elmer, Waltham, Mass., USA).
In all cases, the site-specific protease cleaves non-phosphorylated peptide only and eliminates the FRET signal. Phosphorylation levels of each reaction were calculated using the ratio of coumarin emission (donor) over fluorescein emission (acceptor), for which low ratios indicate high phosphorylation and high ratios indicate low phosphorylation levels.

BEAS2B cells = experiment: Poly I:C-induced ICAM-1 expression in BEAS2B cells; type: cell-based; conditions: Homo sapiens, BEAS-2B, 18 h after poly I:C transfection, read-out: PolyIC/ICAM1 IC50 (BEAS2B)
Experimental: Poly I:C was used in these studies as a simple, RNA virus mimic. Poly I:C-Oligofectamine mixture (2% Oligofectamine±1 μg/mL Poly I:C, 25 μL; Life Technologies and Invivogen Ltd., San Diego, Calif., respectively) was transfected into BEAS2B cells (human bronchial epithelial cells, ATCC). Cells were pre-incubated with final concentrations of test compounds for 2 h and the level of ICAM-1 expression on the cell surface was determined by cell-based ELISA. […]
The cells were washed with PBS-Tween (3×200 μL) and incubated with the secondary antibody (100 μL; HRP-conjugated anti-rabbit IgG, Dako Ltd., Glostrup, Denmark). […] The ICAM-1 signal was detected by reading the absorbance at 450 nm against a reference wavelength of 655 nm using a spectrophotometer. The cells were then washed with PBS-Tween (3×200 μL) and total cell numbers in each well were determined by reading absorbance at 595 nm after Crystal Violet staining (50 μL of a 2% solution in PBS) and elution by 1% SDS solution (100 μL) in PBS. The measured OD 450-655 readings were corrected for cell number by dividing with the OD595 reading in each well. The inhibition of ICAM-1 expression was calculated at each concentration of test compound by comparison with vehicle control.

[2] = system: sputum macrophages from COPD patients; experiment: Cytokine production in LPS-treated sputum macrophages from COPD patients; type: cell-based; conditions: Homo sapiens, Macrophage; at 0.1 μg/mL; LPS 1 μg/mL, 18 h; read-out: Percent Inhibition IL-6
Experimental: Patients with COPD inhaled a nebulised solution of 3% (w/v) hypertonic saline using an ultrasonic nebuliser (Devilbiss, Carthage, Mo.) with tidal breathing for 5 min. This procedure was repeated a maximum of three times until enough sputum was obtained. The sputum samples were homogenized and mixed vigorously using a vortex mixer in 0.02% v/v dithiothreitol (DTT) solution. The samples were re-suspended in PBS (40 mL) followed by centrifugation at 1500 rpm at 4° C. for 10 min to obtain sputum cell pellets. The pellets were washed with PBS (40 mL). […]
Where appropriate, 1 μL of a solution containing either the test compound or reference article at the stated concentrations (either 0.1 μg/mL, 0.01 μg/mL, or 0.001 μg/mL) or alternatively 1 μL of DMSO as the vehicle control was added to each well (200 μL in media) and the cells were incubated for 2 h. […] After washing with 200 μL wash buffer per well, the beads were resuspended in sheath fluid (150 μL) and analyzed immediately. The level of each analyte in the supernatant was calculated using Xcel Fit software with a 4 or 5-parameter equation using each standard curve. The inhibitions of each cytokine production were calculated at each concentration by comparison with vehicle control.

T1 sequence (Q16539 whole entry, canonical isoform): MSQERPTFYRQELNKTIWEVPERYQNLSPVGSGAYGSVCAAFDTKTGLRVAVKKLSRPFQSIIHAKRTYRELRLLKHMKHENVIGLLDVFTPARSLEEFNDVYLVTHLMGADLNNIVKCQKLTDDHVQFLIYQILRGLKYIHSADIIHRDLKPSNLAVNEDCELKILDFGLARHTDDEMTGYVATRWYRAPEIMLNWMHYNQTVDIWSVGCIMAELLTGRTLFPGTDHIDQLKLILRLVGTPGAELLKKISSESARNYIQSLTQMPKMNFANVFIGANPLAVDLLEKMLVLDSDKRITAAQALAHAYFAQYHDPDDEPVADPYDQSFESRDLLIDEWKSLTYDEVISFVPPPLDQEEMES

## CCc1cncc(Nc2cc(COc3ccc(NC(=O)Nc4cc(C(C)(C)C)nn4-c4ccc(C)cc4)c4ccccc34)ccn2)n1 [Compound of the invention, 1-(3-(tert-butyl)-1-(p-tolyl)-1H-pyrazol-5-yl)-3-(4-((2-((6-ethylpyrazin-2-yl)amino)pyridin-4-yl)methoxy)naphthalen-1-yl)urea]
[1]
  IC50: 26 nM
BEAS2B cells
  IC50: 61.1 nM
[2]
  inhibition at 0.1 µg/mL: 48 ± 9%

Source: US10045980B2, “Inhibitor of p38 map kinase” (RESPIVERT LTD, priority 2014, dated 2018)
